This is an account of results in ChEMBL document CHEMBL4342507, “Targeting YAP Degradation by a Novel 1,2,4-Oxadiazole Derivative via Restoration of the Function of the Hippo Pathway” (ACS Med Chem Lett, 2020).

Series [1] deals with T1, Serine/threonine-protein kinase LATS1 (Homo sapiens) (UniProt O95835).
T1 sequence (whole entry): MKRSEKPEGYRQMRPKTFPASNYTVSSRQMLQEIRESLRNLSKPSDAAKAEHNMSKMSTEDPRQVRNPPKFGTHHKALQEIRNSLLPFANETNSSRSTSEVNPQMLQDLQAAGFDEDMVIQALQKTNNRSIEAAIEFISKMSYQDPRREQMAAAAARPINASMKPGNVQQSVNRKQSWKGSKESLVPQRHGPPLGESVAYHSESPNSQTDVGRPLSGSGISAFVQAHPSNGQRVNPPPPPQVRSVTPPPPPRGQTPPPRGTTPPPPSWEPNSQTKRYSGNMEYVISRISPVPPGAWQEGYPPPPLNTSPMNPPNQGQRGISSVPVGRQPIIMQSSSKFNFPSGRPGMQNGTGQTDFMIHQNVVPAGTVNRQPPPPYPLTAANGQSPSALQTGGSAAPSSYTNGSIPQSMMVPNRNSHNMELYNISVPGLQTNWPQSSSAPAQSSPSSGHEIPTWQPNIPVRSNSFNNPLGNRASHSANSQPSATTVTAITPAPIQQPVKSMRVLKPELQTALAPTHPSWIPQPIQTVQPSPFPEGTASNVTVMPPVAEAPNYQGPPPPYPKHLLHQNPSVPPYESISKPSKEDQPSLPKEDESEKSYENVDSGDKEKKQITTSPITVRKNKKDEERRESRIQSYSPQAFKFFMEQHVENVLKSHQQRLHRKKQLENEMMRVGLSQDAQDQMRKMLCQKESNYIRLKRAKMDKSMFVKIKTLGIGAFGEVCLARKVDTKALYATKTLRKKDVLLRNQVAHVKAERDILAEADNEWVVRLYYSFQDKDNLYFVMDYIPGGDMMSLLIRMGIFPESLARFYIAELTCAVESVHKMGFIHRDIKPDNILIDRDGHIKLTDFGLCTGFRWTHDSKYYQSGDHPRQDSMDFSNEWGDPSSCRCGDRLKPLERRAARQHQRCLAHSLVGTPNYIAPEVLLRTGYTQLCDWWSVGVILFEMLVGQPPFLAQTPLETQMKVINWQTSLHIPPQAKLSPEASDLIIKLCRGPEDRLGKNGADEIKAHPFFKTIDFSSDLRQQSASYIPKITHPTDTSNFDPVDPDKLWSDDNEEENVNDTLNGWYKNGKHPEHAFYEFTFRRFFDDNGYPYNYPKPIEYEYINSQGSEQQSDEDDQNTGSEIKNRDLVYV
Nature of the series: Activation of LATS1 in triple-negative human SUM159 cells transfected with YAP/TAZ-TEAD reporter plasmid containing 8xGTIIC binding site and cotransfected with pCMV-Luc assessed as suppression of YAP/TAZ luciferase activity measured after 12 hrs by dual luciferase reporter assay. On the technique in general: In a reporter assay the amount or activity of a reporter protein is the signal.

For a further series, the system named is PC-9. Briefly: Cytotoxicity against human PC9 cells assessed as reduction in cell viability at 0.2 to 1.2 uM by MTT assay. It is filed as functional, cell-based. As to conditions: TDE = time-dependent effect. For orientation: Tetrazolium dyes change colour on reduction, which living cells bring about.
In series [2] the target is T1, Serine/threonine-protein kinase LATS1 (Homo sapiens). Briefly: Activation of LATS1 in human SUM159 cells assessed as increase in YAP phosphorylation at Ser397 at 0.25 to 1.5 uM measured after 12 to 24 hrs by immunoblotting analysis. It is filed as cell-based. A general note: A western blot detects proteins with antibodies after separation by electrophoresis.
The target is the same in series [3]. Nature of the series: Activation of LATS1 in human SUM159 cells assessed as increase in phosphorylation at Thr1079 residue measured after 12 hrs by Western blot analysis. Format: cell-based.
In the next series the test system is PC-3. Nature of the series: Effect on MST1 expression in human PC3 cells at 0.25 to 1.5 uM measured after 24 hrs by Western blot analysis. It is filed as functional, cell-based.
The species entered for another series is Homo sapiens. Nature of the series: Activation of MOB in human SUM159 cells assessed as phosphorylation at Thr35 residue at 0.25 to 1.25 uM measured after 12 hrs by Western blot analysis. It is filed as cell-based.
A short description of series [4]: Acute toxicity in athymic Nude-Foxn1nu BALB/c mouse xenografted with human MDA-MB-231 cells assessed as effect on serum total bilirubin level at 200 mg/kg, po administered once daily via gavage for 14 days. As to conditions: in vivo, 336 h. Format: organism-based.
Series [5] deals with Epidermal growth factor receptor (Homo sapiens) (UniProt P00533). Briefly: Induction of EGFR degradation in human MDA-MB-231 cells assessed as suppression of EGFR expression at 0.1 to 0.8 uM by Western blot analysis. Format: cell-based.

The structures appear in SMILES notation. Active and inactive are the calls of the source. The rule behind the calls is not given here.

Epidermal growth factor receptor (Homo sapiens), sequence (P00533 whole entry): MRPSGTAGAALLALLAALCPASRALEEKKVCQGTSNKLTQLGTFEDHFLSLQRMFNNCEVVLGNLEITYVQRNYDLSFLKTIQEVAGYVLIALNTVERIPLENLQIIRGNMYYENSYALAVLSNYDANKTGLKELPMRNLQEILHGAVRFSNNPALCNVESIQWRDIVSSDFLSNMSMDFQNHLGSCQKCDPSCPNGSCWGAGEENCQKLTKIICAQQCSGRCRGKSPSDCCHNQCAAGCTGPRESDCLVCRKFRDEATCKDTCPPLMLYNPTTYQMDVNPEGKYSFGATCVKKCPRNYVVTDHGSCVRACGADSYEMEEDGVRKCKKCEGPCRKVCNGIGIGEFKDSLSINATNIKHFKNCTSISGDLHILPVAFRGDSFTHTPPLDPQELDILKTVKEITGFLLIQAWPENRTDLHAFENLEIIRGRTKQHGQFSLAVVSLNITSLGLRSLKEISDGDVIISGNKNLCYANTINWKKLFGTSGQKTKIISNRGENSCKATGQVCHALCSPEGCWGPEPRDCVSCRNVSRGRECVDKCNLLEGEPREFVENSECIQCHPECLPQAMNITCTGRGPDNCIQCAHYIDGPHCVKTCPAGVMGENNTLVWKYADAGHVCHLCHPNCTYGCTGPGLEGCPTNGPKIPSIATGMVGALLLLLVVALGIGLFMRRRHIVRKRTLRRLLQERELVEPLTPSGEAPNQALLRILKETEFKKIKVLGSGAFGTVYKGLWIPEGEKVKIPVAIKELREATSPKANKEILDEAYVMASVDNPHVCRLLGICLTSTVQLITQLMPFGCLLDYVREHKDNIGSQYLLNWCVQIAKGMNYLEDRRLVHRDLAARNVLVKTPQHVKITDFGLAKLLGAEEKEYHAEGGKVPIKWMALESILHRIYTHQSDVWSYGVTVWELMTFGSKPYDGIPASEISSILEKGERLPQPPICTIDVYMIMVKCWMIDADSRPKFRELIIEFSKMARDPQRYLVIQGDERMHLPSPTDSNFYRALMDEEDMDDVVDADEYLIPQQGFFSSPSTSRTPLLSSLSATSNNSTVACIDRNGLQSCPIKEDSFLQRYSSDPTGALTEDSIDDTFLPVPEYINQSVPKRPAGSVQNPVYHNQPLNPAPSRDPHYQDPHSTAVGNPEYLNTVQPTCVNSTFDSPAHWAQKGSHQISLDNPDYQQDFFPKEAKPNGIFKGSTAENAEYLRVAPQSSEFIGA

Take `CC(=O)Nc1ccc(NC(=O)Nc2cccc(-c3nc(-c4ccc(NC(=O)c5cccnc5)cc4Cl)no3)c2)cc1C(F)(F)F`: the Activity result in series [1] is “Dose-dependent effect”; with PC-9, “Tde”; in series [3] it was “Dose-dependent effect”; in series [4], “Non-Toxic”. Besides, the result in series [2] was Active. The result (in the series on PC-3; in the series filed under Homo sapiens; in series [5]) was inactive.
